Test results from patent US20190381017A1, “Compositions Comprising Serdexmethylphenidate Conjugates And Methods Of Use Thereof” (KemPharm, Inc., priority 2018, published 2019).
Where “and” joins values, the source holds several entries; their conditions need not be identical. Equal entries are not always repeated. Structures can show the parent of a compound that is named as a salt.

How the values were obtained:
[1] = system: recreational stimulant users; test: Intravenous abuse potential, VAS pharmacodynamic scores (Example 2); assay type: in vivo, human
Description: “Drug liking” score, used herein, is the score used to assess the degree that a human participant likes a drug effect at the time the question is being asked (that is, at the moment). It is scored using a 0 to 100 point bipolar visual analogue scale (VAS) anchored in the center with a neutral anchor of “neither like nor dislike” (score of 50), on the left with “strong disliking” (score of 0) and on the right with “strong liking” (score of 100).
“Euphoria” or “Feeling High” score, used herein, is the term to describe the score used to assess the degree that a human participant is high at the time the question is being asked (that is, at the moment). It is scored using a 0 to 100 point unipolar visual analogue scale (VAS) anchored on the left with “Not at All” (score of 0) and on the right with “Extremely” (score of 100).
“Take Drug Again” score, used herein, is the term to describe the score used to assess the degree that a human participant wants to take the drug again, if given the opportunity, based on his/her opinion now, i.e., at the time the question is being asked. It is scored using a 0 to 100 point unipolar visual analogue scale (VAS) anchored on the left with “Definitely Would Not” (score of 0) and on the right with “Definitely Would” (score of 100).
“Overall Drug Liking” score, used herein, is the term to describe the score used to assess the human subject's global perception of drug liking (i.e., the subjective effects over the whole course of the drug experience including any carryover effects). Subjects respond to the statement “Overall, my liking for this drug is.” The question is scored using a 0-100 point bipolar VAS anchored on the left with “Strong Disliking” (score of 0); “Neither Like nor Dislike” (score of 50) in the middle, and anchored on the right with “Strong Liking” (score of 100). This scale has the advantage of the human subject being relatively less affected or unaffected by acute study drug effects (if any) by the time of the assessment.
“Good Effects” score, used herein, is the term to describe the score used to assess the degree that a human participant is feeling good drug effects at the time the question is being asked (that is, at the moment). Subjects respond to the statement “At this moment, I can feel good drug effects.” It is scored using a 0 to 100 point unipolar visual analogue scale (VAS) anchored on the left with “Not at All” (score of 0) and on the right with “Extremely” (score of 100).
Safety assessments were performed throughout the study.

[2] = system: healthy, nondependent, recreational stimulant users with intranasal insufflation experience; test: Intranasal abuse potential, VAS pharmacodynamic scores (Example 5); assay type: in vivo, human; details: for Mean Overall Drug Liking / Mean Take Drug Again / Median Overall Drug Liking / Median Take Drug Again / Drug Liking Emax (mean) / Drug Liking Emax (median) / Feeling Drowsy/Alert Emax (mean) / Feeling Drowsy/Alert Emax (median) / Overall Drug Liking Emax (mean) / Overall Drug Liking Emax (median) / Take Drug Again Emax (mean) / Take Drug Again Emax (median): bipolar VAS; for Any Effect Emax (mean) / Any Effect Emax (median) / Bad Effects Emax (mean) / Bad Effects Emax (median) / Ease of Nasal Insufflation (mean) / Ease of Nasal Insufflation (median) / Feeling High Emax (mean) / Feeling High Emax (median) / Good Effects Emax (mean) / Good Effects Emax (median): unipolar VAS
Description: The study consisted of a Screening Period, an in-clinic Drug Discrimination Phase, a Treatment Phase, and a Follow-Up Visit.
Subjects who successfully completed the Screening Period returned to the clinic to complete the Drug Discrimination Phase. The Drug Discrimination Test was performed to ensure that subjects can differentiate between the effects of a single dose of d-methylphenidate hydrochloride and placebo, administered intranasally. Subjects who successfully completed the Drug Discrimination Phase remained as inpatients to enter the Treatment Phase. The Drug Discrimination Phase was a double-blind, intranasal, single-dose, 2-treatment, 2-period, 2-sequence, randomized, crossover design.
All subjects were required to fast for at least 8 hours prior to each dose of study drug until approximately 4 hours after each dose. Abuse potential measures and pharmacokinetic samples were collected at different times after the administration of study drug. Subjects who successfully completed the Drug Discrimination Phase and who qualified for the Treatment Phase remained as inpatients to enter the Treatment Phase.
The placebo dose consisted of 80 mg of microcrystalline cellulose to create the same volume.
On dosing days in the Treatment Phase, blood samples were collected for the measurement of the plasma concentrations of SDX, d-methylphenidate (d-MPH), l-methylphenidate (l-MPH) and ritalinic acid at predose and at 0.25, 0.5, 0.75, 1, 1.5, 2, 3, 4, 5, 6, 7, 8, 9, 10, 12, 16, 24, 36, and 48 hours±5 minutes after each dose of study drug. […] All VAS pharmacodynamic assessments except Take Drug Again and Overall Drug Liking were performed at 0.25, 0.5, 0.75, 1, 1.5, 2, 3, 4, 5, 6, 7, 8, 10, 12, 24 hours±5 minutes postdose. In addition, predose assessments of Feeling High, and Drowsiness/Alertness were collected. The Take Drug Again and Overall Drug Liking VAS assessments were performed at 12 and 24 hours±5 minutes postdose.

[3] = SDX Cl 30 mg vs placebo, bipolar VAS
[4] = SDX Cl 30 mg vs placebo, unipolar VAS
[5] = SDX Cl 30 mg, d-MPH HCl 15 mg, 12 hours
[6] = SDX Cl 30 mg, d-MPH HCl 15 mg, 12 hours, unipolar VAS
[7] = SDX Cl 30 mg, d-MPH HCl 15 mg, 24 hours
[8] = SDX Cl 30 mg, d-MPH HCl 15 mg, 24 hours, unipolar VAS
[9] = SDX Cl 30 mg, d-MPH HCl 15 mg, bipolar VAS
[10] = SDX Cl 30 mg, d-MPH HCl 15 mg, unipolar VAS
[11] = SDX Cl 80 mg, d-MPH HCl 40 mg, 12 hours
[12] = SDX Cl 80 mg, d-MPH HCl 40 mg, 24 hours
[13] = d-MPH HCl 15 mg vs SDX Cl 30 mg, bipolar VAS
[14] = d-MPH HCl 15 mg vs SDX Cl 30 mg, unipolar VAS
[15] = d-MPH HCl 40 mg vs SDX Cl 80 mg

## COC(=O)[C@H](c1ccccc1)[C@H]1CCCCN1C(=O)OC[n+]1cccc(C(=O)N[C@@H](CO)C(=O)O)c1.[Cl-] [serdexmethylphenidate chloride]
[1]; [3]
  Mean difference Overall Drug Liking, 12 hours: 2.8
  Mean difference Overall Drug Liking, 24 hours: 1.2
  Mean difference Overall Drug Liking, Emax: 1.4
  Median difference Drug Liking Emax: 0.5
[1]; [4]
  Mean difference Feeling High Emax: 3.4
  Mean difference Good Effects Emax: 2.2
  Mean difference Take Drug Again, 12 hours: 9.1
  Mean difference Take Drug Again, 24 hours: 1.4
  Mean difference Take Drug Again, Emax: 6.0
[1]; [5]
  Mean Overall Drug Liking: 53.3
  Median Overall Drug Liking: 50.0
[1]; [6]
  Mean Take Drug Again: 17.5
  Median Take Drug Again: 0.0
[1]; [7]
  Mean Overall Drug Liking: 54.8
  Median Overall Drug Liking: 50.0
[1]; [8]
  Mean Take Drug Again: 15.7
  Median Take Drug Again: 0.0
[1]; [9]
  Drug Liking Emax (mean): 56.6
  Drug Liking Emax (median): 50.5
  Overall Drug Liking Emax (mean): 55.2
  Overall Drug Liking Emax (median): 50.0
[1]; [10]
  Feeling High Emax (mean): 14.5
  Feeling High Emax (median): 0.0
  Good Effects Emax (mean): 15.5
  Good Effects Emax (median): 0.0
  Take Drug Again Emax (mean): 19.6
  Take Drug Again Emax (median): 0.0
[2]; SDX Cl 80 mg
  Mean difference Drug Liking Emax vs placebo: 19.9
  Mean difference Overall Drug Liking vs placebo, 12 hours: 10.3
  Mean difference Overall Drug Liking vs placebo, Emax: 11.5
[2]; SDX Cl 80 mg, d-MPH HCl 40 mg
  Mean difference Any Effect Emax vs placebo: 48.8
  Mean difference Ease of Nasal Insufflation Emax vs placebo: 59.0
  Mean difference Feeling Drowsy/Alert Emax vs placebo: 20.1
  Mean difference Feeling High Emax vs placebo: 40.7
  Mean difference Good Effects Emax vs placebo: 44.2
  Mean difference Overall Drug Liking vs placebo, 24 hours: 8.8
  Mean difference Take Drug Again vs placebo, 12 hours: 7.6
  Mean difference Take Drug Again vs placebo, 24 hours: 6.7
  Mean difference Take Drug Again vs placebo, Emax: 10.8
  Median difference Bad Effects Emax vs placebo: 9.5
  Drug Liking Emax (mean): 71.0
  Drug Liking Emax (median): 71
  Feeling Drowsy/Alert Emax (mean): 71.2
  Feeling Drowsy/Alert Emax (median): 71
  Overall Drug Liking Emax (mean): 61.8
  Overall Drug Liking Emax (median): 58
  Take Drug Again Emax (mean): 60.0
  Take Drug Again Emax (median): 56
  Any Effect Emax (mean): 49.4
  Any Effect Emax (median): 47
  Bad Effects Emax (mean): 14.9
  Bad Effects Emax (median): 1
  Ease of Nasal Insufflation (mean): 65.8
  Ease of Nasal Insufflation (median): 71
  Feeling High Emax (mean): 43.4
  Feeling High Emax (median): 36
  Good Effects Emax (mean): 44.9
  Good Effects Emax (median): 42
[2]; [11]
  Mean Overall Drug Liking: 60.4
  Mean Take Drug Again: 56.7
  Median Overall Drug Liking: 58
  Median Take Drug Again: 51
[2]; [12]
  Mean Overall Drug Liking: 59.0
  Mean Take Drug Again: 55.8
  Median Overall Drug Liking: 55
  Median Take Drug Again: 50
[2]; SDX Cl 80 mg, d-MPH HCl 40 mg, listed as SDX chloride
  Drug Liking Emax (mean): 71

## COC(=O)[C@H](c1ccccc1)[C@H]1CCCCN1 [d-methylphenidate hydrochloride, d-threo-methylphenidate hydrochloride]
[1]; [5]
  Mean Overall Drug Liking: 68.0
  Median Overall Drug Liking: 73.0
[1]; [6]
  Mean Take Drug Again: 61.3
  Median Take Drug Again: 69.5
[1]; [7]
  Mean Overall Drug Liking: 67.3
  Median Overall Drug Liking: 70.5
[1]; [8]
  Mean Take Drug Again: 54.9
  Median Take Drug Again: 58.5
[1]; [9]
  Drug Liking Emax (median): 84.5
  Overall Drug Liking Emax (mean): 72.4
  Overall Drug Liking Emax (median): 74.0
[1]; [10]
  Feeling High Emax (mean): 77.4
  Feeling High Emax (median): 79.0
  Good Effects Emax (mean): 82.1
  Good Effects Emax (median): 85.0
  Take Drug Again Emax (mean): 63.3
  Take Drug Again Emax (median): 72.5
[1]; [13]
  Median difference Drug Liking Emax: 29.0
  Median difference Overall Drug Liking, 12 hours: 16.0
  Median difference Overall Drug Liking, 24 hours: 13.5
  Median difference Overall Drug Liking, Emax: 18.0
[1]; [14]
  Mean difference Take Drug Again, 12 hours: 43.3
  Mean difference Take Drug Again, 24 hours: 39.2
  Mean difference Take Drug Again, Emax: 43.1
  Median difference Feeling High Emax: 67.0
  Median difference Good Effects Emax: 73.0
[2]; SDX Cl 80 mg, d-MPH HCl 40 mg
  Mean difference Any Effect Emax vs placebo: 88.6
  Mean difference Ease of Nasal Insufflation Emax vs placebo: 11.3
  Mean difference Feeling Drowsy/Alert Emax vs placebo: 42.3
  Mean difference Feeling High Emax vs placebo: 85.2
  Mean difference Good Effects Emax vs placebo: 90.0
  Mean difference Overall Drug Liking vs placebo, 24 hours: 26.1
  Mean difference Take Drug Again vs placebo, 12 hours: 29.1
  Mean difference Take Drug Again vs placebo, 24 hours: 28.3
  Mean difference Take Drug Again vs placebo, Emax: 31.1
  Median difference Bad Effects Emax vs placebo: 10.5
  Drug Liking Emax (median): 100
  Feeling Drowsy/Alert Emax (mean): 93.4
  Feeling Drowsy/Alert Emax (median): 100
  Overall Drug Liking Emax (mean): 81.0
  Overall Drug Liking Emax (median): 90
  Take Drug Again Emax (mean): 80.3
  Take Drug Again Emax (median): 95
  Any Effect Emax (mean): 89.2
  Any Effect Emax (median): 100
  Bad Effects Emax (mean): 18.6
  Bad Effects Emax (median): 2
  Ease of Nasal Insufflation (mean): 18.1
  Ease of Nasal Insufflation (median): 7
  Feeling High Emax (mean): 88.0
  Feeling High Emax (median): 97
  Good Effects Emax (mean): 90.6
  Good Effects Emax (median): 97
[2]; [11]
  Mean Overall Drug Liking: 79.6
  Mean Take Drug Again: 78.2
  Median Overall Drug Liking: 87
  Median Take Drug Again: 91
[2]; [12]
  Mean Overall Drug Liking: 76.3
  Mean Take Drug Again: 77.4
  Median Overall Drug Liking: 82
  Median Take Drug Again: 94
[2]; SDX Cl 80 mg, d-MPH HCl 40 mg, hydrochloride
  Drug Liking Emax (mean): 93 and 93.2
[2]; d-MPH HCl 40 mg
  Median difference Drug Liking Emax vs placebo: 45
  Median difference Overall Drug Liking vs placebo, 12 hours: 33.5
  Median difference Overall Drug Liking vs placebo, Emax: 35
[2]; [15]
  Mean difference Any Effect Emax: 39.8
  Mean difference Drug Liking Emax: 22.3
  Mean difference Ease of Nasal Insufflation Emax: -47.7
  Mean difference Feeling Drowsy/Alert Emax: 22.2
  Mean difference Feeling High Emax: 44.5
  Mean difference Good Effects Emax: 45.7
  Mean difference Overall Drug Liking, 12 hours: 19.2
  Mean difference Overall Drug Liking, 24 hours: 17.3
  Mean difference Overall Drug Liking, Emax: 19.3
  Mean difference Take Drug Again, 12 hours: 21.5
  Mean difference Take Drug Again, 24 hours: 21.5
  Mean difference Take Drug Again, Emax: 20.3
  Median difference Bad Effects Emax: 0
